Measured values as given in publication PMC11901902, “Design, Synthesis, and Cytotoxicity Evaluation of Novel Indolin-2-One Based Molecules on Hepatocellular Carcinoma HepG2 Cells as Protein Kinase Inhibitors” (Molecules, 2025).

Columns and labels:
EGFR = biological target: T1, EGFR (Homo sapiens, UniProt P00533); experiment: Kinase-Glo Plus luminescence kinase inhibition assay, EGFR; assay type: biochemical; conditions: 10 µM ATP, 30 °C, 40 min; mean ± SEM
T1 construct: purchased BPS Bioscience 40721
Procedure: The enzyme inhibition assay for the tested molecules was performed at BPS Bioscience Corporation, San Diego, CA, USA. The following materials served as the enzyme sources, Poly (Glu, Tyr) sodium salt (4:1, Glu:Tyr) (Sigma#P7244) served as the standardized substrate, and the Kinase-Glo Plus Luminescence kinase assay kit (Promega # V3772) was used. […] Glo Plus luminescence kinase assay kits. The assays were performed using Kinase-Glo Plus luminescence (Promega Corporation, Madison, WI, USA).
The tested molecules 9, 20, and indurbin were diluted to 100 µL in DMSO (10%), and 5 µL of the solution was added to a 50-µL enzyme reaction until the final concentration of DMSO was 1% in all of reactions. The enzymatic reactions were conducted at 30 °C for 40 min. The reaction mixture contained enzyme substrate and respective kinases. After the enzymatic reaction, 50 µL of enzyme-Glo Plus luminescence […] assay solution (Promega) was added to each reaction, and the plate was incubated for 5 min at room temperature. The luminescence signal was measured using a BioTek Synergy 2 microplate reader. The luminescence data were analyzed using the computer software GraphPad Prism. The difference between luminescence intensities in the absence of enzyme (Lut) and in the presence of enzyme (Luc) was defined as 100% activity (Lut − Luc). […] The IC50 value was determined using GraphPad Prism software. […]
Glo Plus luminescence kinase assay kits were used in these assays. […] The assay measures kinase activity by quantitating the amount of ATP remaining in the solution following kinase reaction. […] After the enzymatic reaction, 50 µL of Kinase-Glo Plus Luminescence kinase assay solution (Promega) was added to each reaction, and the plate was incubated for 5 min at room temperature. The luminescence signal was measured using a BioTek Synergy 2 microplate reader. […] The luminescence data were analyzed using the Graphpad Prism software.

Bax = experiment: ELISA of Bax in treated HepG-2 cells; assay type: cell-based, human; conditions: HepG-2, compound at its IC50; ± S.E.M; control 18.93±11.71
Procedure: HepG2 cells were cultured in RPMI 10% + 5%FBS penicillin/streptomycin and were incubated at a humidity 5% CO2 and maintained at 37 °C. […] HepG2 cells were cultured as a monolayer in T-25 flasks and were seeded to attain 30% confluency prior to treatment. The main 100 mM stock dissolved in DMSO was diluted with the cell culture medium in order to reach the previously determined IC50 concentration of each of the three preparations. After that, HepG2 cells were collected via trypsinization and centrifuged at 10,000 rpm. The pellet was then rinsed with PBS and lysed in RIPA lysis buffer at 4 °C for 45 min, then centrifuged at 14,000 rpm for 20 min to remove the cellular debris. Lysates were then collected and stored at […] for protein determination. The levels of p53, p21, Fas-L, Bax, Bcl-2, and caspase 3/7 were assessed using the human P53 ELISA kit (Catalog No. ABIN6962151), P21 ELISA kit (Catalog No. ABIN6966175), Human Apoptosis Ligand (FAS-L), Bax ELISA kit, Human Factor-Related. Bcl-2 ELISA kit ELISA kit, and caspase3/7 ELISA kit (Elabscience Biotechnology Co., Wuhan, Hubei, China). The procedure of the used kits was done according to the manufacturer’s instructions. Briefly, equal amounts of cell lysates were loaded and then probed with specific antibodies. The samples were measured at 450 nm in ROBONEK P2000 ELISA reader. […]

HepG-2 cells = experiment: DNA flow cytometry cell cycle analysis; assay type: cell-based, human; conditions: HepG-2, compound at its IC50, 24 h
Procedure: The HepG-2 cells were then collected by trypsinization, washed with PBS, and fixed. After that, treated cells were stained using the Cycle Test Plus DNA Reagent Kit (BD Biosciences, San Jose, CA, USA) according to the manufacturer’s instructions. The percentage of cell cycle distribution was calculated using CELLQUEST software 5.1 (Becton Dickinson Immuno-cytometry Systems, San Jose, CA, USA) (Table S4).

T1 sequence (P00533 25-1210): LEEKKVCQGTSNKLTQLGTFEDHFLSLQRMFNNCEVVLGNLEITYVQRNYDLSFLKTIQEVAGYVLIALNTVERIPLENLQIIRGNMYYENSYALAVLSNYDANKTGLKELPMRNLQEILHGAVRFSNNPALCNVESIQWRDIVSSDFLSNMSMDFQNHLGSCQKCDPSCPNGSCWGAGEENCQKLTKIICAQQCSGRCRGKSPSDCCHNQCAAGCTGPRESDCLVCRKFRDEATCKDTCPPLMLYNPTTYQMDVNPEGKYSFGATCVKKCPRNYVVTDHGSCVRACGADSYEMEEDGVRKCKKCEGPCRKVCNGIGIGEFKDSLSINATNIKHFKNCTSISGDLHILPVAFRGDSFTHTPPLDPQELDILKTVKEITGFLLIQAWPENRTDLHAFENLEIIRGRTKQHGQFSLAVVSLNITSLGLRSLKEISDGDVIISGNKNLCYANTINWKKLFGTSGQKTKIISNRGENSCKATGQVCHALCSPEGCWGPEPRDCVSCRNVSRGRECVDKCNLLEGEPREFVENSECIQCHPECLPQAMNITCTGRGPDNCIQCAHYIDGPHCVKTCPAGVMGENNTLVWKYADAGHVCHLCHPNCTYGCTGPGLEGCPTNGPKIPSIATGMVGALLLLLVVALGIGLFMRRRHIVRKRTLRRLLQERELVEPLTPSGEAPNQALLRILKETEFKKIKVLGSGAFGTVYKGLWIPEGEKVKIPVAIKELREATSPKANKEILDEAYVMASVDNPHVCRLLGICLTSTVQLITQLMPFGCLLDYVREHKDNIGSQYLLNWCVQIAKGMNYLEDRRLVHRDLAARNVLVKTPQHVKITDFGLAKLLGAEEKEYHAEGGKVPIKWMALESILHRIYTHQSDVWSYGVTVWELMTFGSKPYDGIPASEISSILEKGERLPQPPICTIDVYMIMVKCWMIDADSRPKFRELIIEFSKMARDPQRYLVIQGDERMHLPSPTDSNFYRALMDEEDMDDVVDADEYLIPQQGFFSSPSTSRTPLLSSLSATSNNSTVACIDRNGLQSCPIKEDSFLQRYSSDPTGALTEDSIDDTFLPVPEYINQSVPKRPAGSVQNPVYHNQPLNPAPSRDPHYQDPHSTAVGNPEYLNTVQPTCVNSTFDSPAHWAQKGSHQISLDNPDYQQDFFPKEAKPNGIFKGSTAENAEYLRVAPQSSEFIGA

Compound	IC50 (EGFR)	Concentration of Bax (Bax)	Cell cycle distribution (%) G0-G1 (HepG-2 cells)	Cell cycle distribution (%) G2-M (HepG-2 cells)	Cell cycle distribution (%) S (HepG-2 cells)	Cell cycle distribution (%) sub-G0/G1 (HepG-2 cells)
O=C1Nc2ccc(Cl)cc2C1=Nc1ccc2nc[nH]c(=O)c2c1 [Compound 9, 6-(5-Chloro-2-oxo-1,2-dihydro-indol-3-ylideneamino)-3H-quinazolin-4-one]	87.5 ± 6.71 nM	88.12 ± 5.27 pg/mL	67.16%	20.75%	32.03%	13.82%
O=C1Nc2ccc(Cl)cc2C1=Nc1ccc(-c2nc3ccccc3c(=O)[nH]2)cc1 [Compound 20, 2-[4-(5-Chloro-2-oxo-1,2-dihydro-indol-3-ylideneamino)-phenyl]-3H-quinazolin-4-one]	32.7 ± 1.61 nM	108.32 ± 9.82 pg/mL	60.3%	2.86%	16.27%	10.59%
